Assay results from ChEMBL document CHEMBL2440076, “New triarylpyrazoles as broad-spectrum anticancer agents: design, synthesis, and biological evaluation” (Eur J Med Chem, 2013).
pIC50: −log10 of the molar value.

How the values were obtained:
HCT-15 = assay: Growth inhibition of human HCT15 cells after 48 hrs by sulforhodamine B assay; format: functional; conditions: HCT-15, 48 h
786-0 = assay: Growth inhibition of human 786-0 cells after 48 hrs by sulforhodamine B assay; format: functional; conditions: 786-0, 48 h
[1] = Growth inhibition of human NCI-ADR-RES cells assessed as cell growth at 10 uM after 48 hrs by sulforhodamine B assay; format: functional; conditions: read-out: Activity
M14 = assay: Growth inhibition of human M14 cells assessed as cell growth at 10 uM after 48 hrs by sulforhodamine B assay; format: functional; conditions: M14, 48 h, read-out: Activity
OVCAR-5 = assay: Growth inhibition of human OVCAR5 cells assessed as cell growth at 10 uM after 48 hrs by sulforhodamine B assay; format: functional; conditions: OVCAR-5, 48 h, read-out: Activity
A549 = assay: Growth inhibition of human A549/ATCC cells after 48 hrs by sulforhodamine B assay; format: functional; conditions: A549, 48 h
SF-539 [2] = assay: Growth inhibition of human SF539 cells after 48 hrs by sulforhodamine B assay; format: functional; conditions: SF-539, 48 h
MDA-MB-468 = assay: Growth inhibition of human MDA-MB-468 cells after 48 hrs by sulforhodamine B assay; format: functional, cell-based; conditions: MDA-MB-468, 48 h
U-251 = assay: Growth inhibition of human U251 cells after 48 hrs by sulforhodamine B assay; format: functional; conditions: U-251, 48 h
UACC-62 = assay: Growth inhibition of human UACC62 cells after 48 hrs by sulforhodamine B assay; format: functional; conditions: UACC-62, 48 h
DU-145 [3] = assay: Growth inhibition of human DU145 cells after 48 hrs by sulforhodamine B assay; format: functional; conditions: DU-145, 48 h
HT-29 = assay: Growth inhibition of human HT-29 cells assessed as cell growth at 10 uM after 48 hrs by sulforhodamine B assay; format: functional; conditions: HT-29, 48 h, read-out: Activity
DU-145 [4] = assay: Growth inhibition of human DU145 cells assessed as cell growth at 10 uM after 48 hrs by sulforhodamine B assay; format: functional; conditions: DU-145, 48 h, read-out: Activity
UO-31 = assay: Growth inhibition of human UO31 cells after 48 hrs by sulforhodamine B assay; format: functional; conditions: UO-31, 48 h
SNB-19 = assay: Growth inhibition of human SNB19 cells assessed as cell growth at 10 uM after 48 hrs by sulforhodamine B assay; format: functional; conditions: SNB-19, 48 h, read-out: Activity
ACHN = assay: Growth inhibition of human ACHN cells after 48 hrs by sulforhodamine B assay; format: functional
OVCAR-3 = assay: Growth inhibition of human OVCAR3 cells assessed as cell growth at 10 uM after 48 hrs by sulforhodamine B assay; format: functional; conditions: OVCAR-3, 48 h, read-out: Activity
NCI-H322M [5] = assay: Growth inhibition of human NCI-H322M cells assessed as cell growth at 10 uM after 48 hrs by sulforhodamine B assay; format: functional; conditions: read-out: Activity
SR = assay: Growth inhibition of human SR cells after 48 hrs by sulforhodamine B assay; format: functional
OVCAR-8 [6] = assay: Growth inhibition of human OVCAR8 cells after 48 hrs by sulforhodamine B assay; format: functional; conditions: OVCAR-8, 48 h
SF-539 [7] = assay: Growth inhibition of human SF539 cells assessed as cell growth at 10 uM after 48 hrs by sulforhodamine B assay; format: functional; conditions: SF-539, 48 h, read-out: Activity
KM12 = assay: Growth inhibition of human KM12 cells after 48 hrs by sulforhodamine B assay; format: functional, cell-based; conditions: KM12, 48 h
COLO 205 = assay: Growth inhibition of human COLO205 cells assessed as cell growth at 10 uM after 48 hrs by sulforhodamine B assay; format: functional; conditions: COLO 205, 48 h, read-out: Activity
MDA-MB-231 = assay: Growth inhibition of human MDA-MB-231 cells assessed as cell growth at 10 uM after 48 hrs by sulforhodamine B assay; format: functional; conditions: MDA-MB-231, 48 h, read-out: Activity
OVCAR-8 [8] = assay: Growth inhibition of human OVCAR8 cells assessed as cell growth at 10 uM after 48 hrs by sulforhodamine B assay; format: functional; conditions: OVCAR-8, 48 h, read-out: Activity
UACC-257 = assay: Growth inhibition of human UACC257 cells after 48 hrs by sulforhodamine B assay; format: functional; conditions: UACC-257, 48 h
SK-MEL-28 = assay: Growth inhibition of human SK-MEL-28 cells assessed as cell growth at 10 uM after 48 hrs by sulforhodamine B assay; format: functional; conditions: SK-MEL-28, 48 h, read-out: Activity
HCT-116 = assay: Growth inhibition of human HCT116 cells after 48 hrs by sulforhodamine B assay; format: functional; conditions: HCT-116, 48 h
NCI-H322M [9] = assay: Growth inhibition of human NCI-H322M cells after 48 hrs by sulforhodamine B assay; format: functional
MCF7 = assay: Growth inhibition of human MCF7 cells assessed as cell growth at 10 uM after 48 hrs by sulforhodamine B assay; format: functional; conditions: MCF7, 48 h, read-out: Activity
K562 = assay: Growth inhibition of human K562 cells assessed as cell growth at 10 uM after 48 hrs by sulforhodamine B assay; format: functional; conditions: K562, 48 h, read-out: Activity
[10] = Growth inhibition of human HCC2998 cells after 48 hrs by sulforhodamine B assay; format: functional; conditions: HCC 2998, 48 h
SW-620 = assay: Growth inhibition of human SW620 cells after 48 hrs by sulforhodamine B assay; format: functional; conditions: SW-620, 48 h
HOP-92 = assay: Growth inhibition of human HOP92 cells assessed as cell growth at 10 uM after 48 hrs by sulforhodamine B assay; format: functional; conditions: HOP-92, 48 h, read-out: Activity
[11] = read-out: LC50 (the source's name)

SMILES: COc1cc(-c2nn(-c3cccc(NC(=O)c4ccc(N5CCOCC5)c(C(F)(F)F)c4)c3)cc2-c2ccncc2)ccc1Cl
- GI50 (HCT-15): 0.247 µM
- LC50 (HCT-15): > 100 µM
- TGI (HCT-15): > 100 µM
- GI50 (786-0): 0.819 µM
- CC50 (786-0; [11]): > 100 µM
- growth at 10 µM [1]: -7.13%
- growth at 10 µM (M14): 1.42%
- growth at 10 µM (OVCAR-5): 34.7%
- GI50 (A549): 0.315 µM
- LC50 (concentration killing 50% of starting cells) (A549): > 100 µM
- TGI (A549): > 100 µM
- GI50 (SF-539 [2]): 0.153 µM
- TGI (SF-539 [2]): 0.497 µM
- GI50 (MDA-MB-468): 0.183 µM
- pIC50 (MDA-MB-468): 6.74
- TGI (MDA-MB-468): 0.781 µM
- CC50 (MDA-MB-468; [11]): 5.53 µM
- GI50 (U-251): 0.399 µM
- LC50 (concentration killing 50% of cells) (U-251): 60.7 µM
- TGI (U-251): 3.95 µM
- GI50 (UACC-62): 0.266 µM
- LC50 (50% lethal concentration) (UACC-62): > 100 µM
- TGI (UACC-62): 8.2 µM
- GI50 (DU-145 [3]): 0.388 µM
- LC50 (DU-145 [3]): > 100 µM
- TGI (DU-145 [3]): > 100 µM
- growth at 10 µM (HT-29): -13.3%
- growth at 10 µM (DU-145 [4]): 10.9%
- GI50 (UO-31): 0.289 µM
- TGI (UO-31): 7.53 µM
- CC50 (UO-31; [11]): > 100 µM
- growth at 10 µM (SNB-19): 45.1%
- GI50 (ACHN): 0.564 µM
- TGI (ACHN): > 100 µM
- CC50 (ACHN; [11]): > 100 µM
- growth at 10 µM (OVCAR-3): -29.9%
- growth at 10 µM (NCI-H322M [5]): 54.2%
- GI50 (SR): 0.0369 µM
- TGI (SR): > 100 µM
- CC50 (SR; [11]): > 100 µM
- GI50 (OVCAR-8 [6]): 0.468 µM
- TGI (OVCAR-8 [6]): > 100 µM
- CC50 (OVCAR-8 [6]; [11]): > 100 µM
- growth at 10 µM (SF-539 [7]): -68.9%
- GI50 (KM12): 0.248 µM
- pIC50 (KM12): 6.60
- TGI (KM12): 6.6 µM
- CC50 (KM12; [11]): > 100 µM
- growth at 10 µM (COLO 205): -43.4%
- growth at 10 µM (MDA-MB-231): -25.2%
- growth at 10 µM (OVCAR-8 [8]): 5.23%
- GI50 (UACC-257): 0.935 µM
- TGI (UACC-257): 8.14 µM
- CC50 (UACC-257; [11]): > 100 µM
- growth at 10 µM (SK-MEL-28): 28.4%
- GI50 (HCT-116): 0.4 µM
- TGI (HCT-116): > 100 µM
- CC50 (HCT-116; [11]): > 100 µM
- GI50 (NCI-H322M [9]): 0.603 µM
- TGI (NCI-H322M [9]): 94.4 µM
- CC50 (NCI-H322M [9]; [11]): > 100 µM
- growth at 10 µM (MCF7): 8.85%
- growth at 10 µM (K562): 1.22%
- GI50 [10]: 1.07 µM
- TGI [10]: 5.02 µM
- CC50 [10, 11]: > 100 µM
- GI50 (SW-620): 0.241 µM
- TGI (SW-620): > 100 µM
- CC50 (SW-620; [11]): > 100 µM
- growth at 10 µM (HOP-92): 11.5%
